Patent US7947284B2, “Purified component of blue-green algae and method of use” (Desert Lake Technologies, priority 2005, dated 2011)

Tested on: CXCR4 expression on the human CD34+ cell line KG-1a
Experiment: Fucoidan-induced CXCR4 expression on KG-1a cells (flow cytometry)
Format: cell-based
Conditions: KG-1a incubated with the agonist alone
Source text: Immunostaining for CXCR4 expression induced by L-selectin ligands: The binding of Fucoidan to L-selectin results in externalization of pre-made CXCR4 onto the cell surface, followed by internalization, creating a window in time for responsiveness to chemotactic factors. This system was used to examine whether AFA-W would compete with Fucoidan for binding to L-selectin on the leukocyte cell surface, and to assess whether it would block this functional effect from another L-selectin ligand. To do so, freshly purified human PBMC were resuspended in RPMI, and distributed in a series of round-bottom microwells. Fucoidan was added to one series of wells, AFA-W to another series, and a mixture of Fucoidan and AFA-W was added to the third series of wells. […] Cells were washed in phosphate-buffered saline containing azide, stained with CXCR4-PE using the staining protocol described above, fixed in formalin, and analyzed by flow cytometry.
The primitive cell line KG-1a is brightly positive for CD34 and for L-selectin, as evaluated by staining with the TQ1 monoclonal antibody. […]
The expression of CXCR4 receptors following exposure to fucoidan was evaluated on lymphocytes using flow cytometry.

With Fucoidan the “effect on expression of the chemokine receptor CXCR4” value was “triggers the expression”.
